Experimental data: EPA's ToxRefDB 2

Legend:
mouse [1] = settings: Carcinogenicity, b6c3f1, Oral, Feed, dose end: 78 week, group: systemic
rat [2] = settings: Carcinogenicity; fischer; Oral; Feed; dose end: 78 week; group: systemic; systemic / in life observation / body weight / body weight gain + systemic / pathology microscopic / peritoneum / neoplasm nos + systemic / …
rat [3] = settings: Subchronic oral toxicity in rodents, fischer, Feed, dose end: 45 day, group: systemic, systemic / in life observation / body weight / body weight gain
mouse [4] = settings: Prenatal developmental toxicity study, cd1, Oral, Gavage/Intubation, dose end: 15 GD
mouse [5] = settings: Subchronic oral toxicity in rodents, b6c3f1, Feed, dose end: 45 day, group: systemic, systemic / in life observation / mortality / mortality
rat [6] = settings: Subchronic oral toxicity in rodents, fischer, Feed, dose end: 13 week, group: systemic
rat [7] = settings: Combined chronic toxicity/carcinogenicity; fischer; Oral; [Not Specified]; dose end: 105 week; group: systemic; systemic / in life observation / body weight / body weight gain + systemic / pathology microscopic / kidney / cytoplasmic alteration + …
mouse [8] = settings: Carcinogenicity; other; Oral; Feed; dose end: 104 week; group: systemic; systemic / pathology microscopic / eye / cataract + systemic / pathology microscopic / kidney / vacuolization
dog [9] = settings: Chronic toxicity; beagle; Oral; Feed; dose end: 52 week; group: systemic; systemic / clinical chemistry / alkaline phosphatase (alp/alk) / alkaline phosphatase (alp/alk) + systemic / clinical chemistry / …
mouse [10] = settings: Carcinogenicity, cd1, Oral, Feed, dose end: 94 week, group: systemic
dog [11] = settings: Subchronic oral toxicity in nonrodent, beagle, Feed, dose end: 90 day, group: systemic
rat [12] = settings: Multigenerational reproductive toxicity study, wistar, Oral, Feed, dose end: 2 generation
rat [13] = settings: Subchronic oral toxicity in rodents, sprague dawley, Feed, dose end: 13 week, group: systemic, systemic / clinical chemistry / protein / protein + systemic / in life observation / body weight / body weight + systemic / in life …
rabbit = settings: Prenatal developmental toxicity study, new zealand white, Oral, Gavage/Intubation, dose end: 18 GD
rat [14] = settings: Combined chronic toxicity/carcinogenicity; sprague dawley; Oral; Feed; dose end: 24 month; group: systemic; systemic / in life observation / body weight / body weight + systemic / in life observation / body weight / body weight gain + systemic / …
rat [15] = settings: Prenatal developmental toxicity study, sprague dawley, Oral, Gavage/Intubation, dose end: 15 GD
mouse [16] = settings: Prenatal developmental toxicity study, cd1, Oral, [Not Specified], dose end: 14 GD
rat [17] = settings: Carcinogenicity; other; Oral; Feed; dose end: 24 month; group: systemic; systemic / pathology microscopic / [other] / [other]
mouse [18] = settings: Multigenerational reproductive toxicity study, cd1, Oral, Water, dose end: 2 generation, group: offspring
mouse [19] = settings: Prenatal developmental toxicity study, cd1, Oral, Gavage/Intubation, dose end: 15 GD; remark: listed apart in the source
[20] = systemic / in life observation / body weight / body weight
[21] = systemic / in life observation / body weight / body weight + systemic / in life observation / mortality / mortality
[22] = group: developmental, developmental / developmental malformation / bone / [other] + developmental / developmental malformation / general / [other] + systemic / in…
[23] = group: maternal, reproductive / reproductive performance / implantations / implantations + reproductive / reproductive performance / resorptions / …
[24] = group: maternal, systemic / pathology gross / spleen / enlarged
[25] = systemic / clinical chemistry / creatinine / creatinine + systemic / hematology / erythrocyte (rbc) count differential / erythrocyte (rbc…
[26] = systemic / in life observation / body weight / body weight gain + systemic / organ weight / liver / relative to body weight + systemic / …
[27] = systemic / organ weight / liver / relative to body weight + systemic / pathology microscopic / liver / vacuolization
[28] = systemic / organ weight / liver / relative to body weight + systemic / pathology microscopic / liver / vacuolization + systemic / in life …
[29] = group: offspring, systemic / in life observation / body weight / offspring (pup) weight
[30] = group: parental, systemic / in life observation / body weight / body weight + systemic / in life observation / body weight / body weight gain + systemic / in…
[31] = group: developmental, developmental / developmental malformation / bone / [other] + developmental / developmental malformation / bone / misshapen
[32] = group: maternal, reproductive / reproductive performance / aborted / aborted + reproductive / reproductive performance / postimplantation loss / …
[33] = group: developmental, developmental / developmental malformation / bone / [other] + developmental / developmental malformation / bone / delayed ossification + …
[34] = group: maternal, systemic / in life observation / body weight / body weight + systemic / in life observation / food consumption / food consumption + systemic…
[35] = group: developmental, systemic / in life observation / body weight / offspring (pup) weight gain
[36] = group: maternal, systemic / in life observation / mortality / mortality
[37] = systemic / in life observation / body weight / offspring (pup) weight + systemic / organ weight / liver / relative to body weight + systemic…
[38] = group: developmental, developmental / developmental malformation / bone / incomplete ossification + systemic / in life observation / body weight / fetal weight + …
[39] = group: maternal, systemic / organ weight / uterus / nos + systemic / in life observation / clinical signs / altered breathing rate + systemic / in life …

## Nc1ccc(S(=O)(=O)c2ccc(N)cc2)cc1 [Dapsone]
Mouse [1]; [20]
  LOAEL: 75 mg/kg/day
  NOAEL: < 75 mg/kg/day
Mouse [1]; [21]
  LEL: 75 mg/kg/day
  NEL: < 75 mg/kg/day
Rat [2]
  LEL: 30 mg/kg/day
  LOAEL: > 60 mg/kg/day
  NEL: < 30 mg/kg/day
  NOAEL: ≥ 60 mg/kg/day
Rat [3]
  LEL: 60 mg/kg/day
  LOAEL: 60 mg/kg/day
  NEL: < 60 mg/kg/day
  NOAEL: < 60 mg/kg/day
Mouse [4]; [22]
  LEL: 200 mg/kg/day
  LOAEL: > 200 mg/kg/day
  NEL: 100 mg/kg/day
  NOAEL: ≥ 200 mg/kg/day
Mouse [4]; [23]
  LOAEL: > 200 mg/kg/day
  NOAEL: ≥ 200 mg/kg/day
Mouse [4]; [24]
  LEL: 50 mg/kg/day
  NEL: < 50 mg/kg/day
Mouse [5]
  LEL: 300 mg/kg/day
  LOAEL: > 7500 mg/kg/day
  NEL: < 300 mg/kg/day
  NOAEL: ≥ 7500 mg/kg/day

## CCOc1nc(F)cc2nc(S(=O)(=O)Nc3c(Cl)cccc3Cl)nn12 [Diclosulam]
Rat [6]; [25]
  LEL: 50 mg/kg/day
  NEL: < 50 mg/kg/day
  NOAEL: 50 mg/kg/day
Rat [6]; systemic / organ weight / liver / relative to body weight + systemic / pathology microscopic / liver / hypertrophy + systemic / pathology …
  LOAEL: 100 mg/kg/day
Rat [7]
  LEL: 102 mg/kg/day
  LOAEL: 102 mg/kg/day
  NEL: 5.1 mg/kg/day
  NOAEL: 5.1 mg/kg/day
Mouse [8]
  LEL: 51.3 mg/kg/day
  LOAEL: 51.3 mg/kg/day
  NEL: < 51.3 mg/kg/day
  NOAEL: < 51.3 mg/kg/day

## COCC(C)N(C(=O)CCl)c1c(C)csc1C (centres undefined) [Dimethenamid]
Dog [9]
  LEL: 48.7 mg/kg/day
  LOAEL: 48.7 mg/kg/day
  NEL: 10.1 mg/kg/day
  NOAEL: 10.1 mg/kg/day
Mouse [10]; systemic / in life observation / body weight / body weight gain
  LOAEL: 200 mg/kg/day
Mouse [10]; [26]
  LEL: 200 mg/kg/day
  NEL: 40.1 mg/kg/day
  NOAEL: 40.1 mg/kg/day
Dog [11]; [27]
  LEL: 33.6 mg/kg/day
  LOAEL: 33.6 mg/kg/day
Dog [11]; [28]
  NEL: 4.72 mg/kg/day
  NOAEL: 4.72 mg/kg/day
Rat [12]; [29]
  LEL: 150 mg/kg/day
  LOAEL: 150 mg/kg/day
  NEL: 36 mg/kg/day
  NOAEL: 36 mg/kg/day
Rat [12]; [30]
  LEL: 150 mg/kg/day
  LOAEL: 150 mg/kg/day
  NEL: 36 mg/kg/day
  NOAEL: 36 mg/kg/day
Rat [13]
  LEL: 98 mg/kg/day
  LOAEL: 98 mg/kg/day
  NEL: 33.5 mg/kg/day
  NOAEL: 33.5 mg/kg/day
rabbit; [31]
  LEL: 150 mg/kg/day
  LOAEL: 150 mg/kg/day
  NEL: 75 mg/kg/day
  NOAEL: 75 mg/kg/day
rabbit; [32]
  LEL: 150 mg/kg/day
  LOAEL: 150 mg/kg/day
  NEL: 75 mg/kg/day
  NOAEL: 75 mg/kg/day
Rat [14]
  LEL: 36 mg/kg/day
  LOAEL: 36 mg/kg/day
  NEL: 5.1 mg/kg/day
  NOAEL: 5.1 mg/kg/day

## OCCOCCOCCO [Triethylene glycol]
Rat [15]; [33]
  LEL: 11300 mg/kg/day
  LOAEL: > 11300 mg/kg/day
  NEL: 5630 mg/kg/day
  NOAEL: ≥ 11300 mg/kg/day
Rat [15]; [34]
  LEL: 5630 mg/kg/day
  LOAEL: > 11300 mg/kg/day
  NEL: 1130 mg/kg/day
  NOAEL: ≥ 11300 mg/kg/day
Mouse [16]; [35]
  LEL: 11300 mg/kg/day
  LOAEL: 11300 mg/kg/day
  NEL: 4500 mg/kg/day
  NOAEL: 4500 mg/kg/day
Mouse [16]; [36]
  LEL: 11300 mg/kg/day
  LOAEL: 11300 mg/kg/day
  NEL: 4500 mg/kg/day
  NOAEL: 4500 mg/kg/day
Rat [17]
  LEL: 4 mg/kg/day
  LOAEL: > 4 mg/kg/day
  NEL: < 4 mg/kg/day
  NOAEL: ≥ 4 mg/kg/day
Mouse [18]; systemic / in life observation / body weight / offspring (pup) weight
  LEL: 2000 mg/kg/day
Mouse [18]; systemic / in life observation / body weight / offspring (pup) weight + systemic / organ weight / liver / relative to body weight
  NEL: 400 mg/kg/day
Mouse [18]; [37]
  LOAEL: > 4000 mg/kg/day
  NOAEL: ≥ 4000 mg/kg/day
Mouse [19]; group: developmental, developmental / developmental malformation / bone / incomplete ossification + systemic / in life observation / body weight / fetal weight
  LEL: 5630 mg/kg/day
Mouse [19]; [38]
  LOAEL: > 11300 mg/kg/day
  NEL: 563 mg/kg/day
  NOAEL: ≥ 11300 mg/kg/day
Mouse [19]; group: maternal, systemic / organ weight / uterus / nos
  LEL: 5630 mg/kg/day
Mouse [19]; [39]
  LOAEL: > 11300 mg/kg/day
  NEL: 563 mg/kg/day
  NOAEL: ≥ 11300 mg/kg/day
